One molecule from ChEMBL document CHEMBL1152114, “Synthesis of conformationally constrained potential inhibitors of mammalian metalloproteinases” (Bioorg Med Chem Lett, 1997) can be followed below.

For experiment [1], the target named is 72 kDa type IV collagenase (Homo sapiens, UniProt P08253). As to the kind of experiment: Inhibition of Gelatinase A, matrix metalloprotease-2.
The target in experiment [2] is Matrix metalloproteinase-9 (Homo sapiens, UniProt P14780). Kind of experiment: Inhibition of Gelatinase B, matrix metalloprotease-9.
A further experiment concerns L1210. Kind of experiment: Compound was evaluated for the inhibitory activity against L1210 cell lines. In kind it is functional, cell-based. The following applies: Mus musculus.

Where only a bound is given, the exact number is not on record here.

Sequence of 72 kDa type IV collagenase (P08253 whole entry): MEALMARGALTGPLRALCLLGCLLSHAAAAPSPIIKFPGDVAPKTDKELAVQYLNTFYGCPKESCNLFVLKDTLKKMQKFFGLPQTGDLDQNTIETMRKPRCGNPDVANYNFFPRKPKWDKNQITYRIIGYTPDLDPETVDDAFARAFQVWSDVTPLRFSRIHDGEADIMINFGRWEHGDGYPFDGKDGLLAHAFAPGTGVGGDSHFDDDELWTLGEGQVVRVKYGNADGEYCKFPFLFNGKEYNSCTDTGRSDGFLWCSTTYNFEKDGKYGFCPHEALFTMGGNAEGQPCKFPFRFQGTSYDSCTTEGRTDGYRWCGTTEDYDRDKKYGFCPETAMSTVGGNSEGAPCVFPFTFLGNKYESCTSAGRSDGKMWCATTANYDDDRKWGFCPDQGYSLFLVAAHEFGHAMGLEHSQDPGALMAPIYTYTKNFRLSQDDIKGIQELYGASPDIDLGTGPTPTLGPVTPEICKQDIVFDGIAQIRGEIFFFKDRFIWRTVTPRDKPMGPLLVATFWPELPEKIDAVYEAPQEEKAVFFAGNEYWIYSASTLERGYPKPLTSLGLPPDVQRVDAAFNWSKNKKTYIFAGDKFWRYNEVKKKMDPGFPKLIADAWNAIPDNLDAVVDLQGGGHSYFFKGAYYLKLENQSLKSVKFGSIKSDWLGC
Sequence of Matrix metalloproteinase-9 (P14780 whole entry): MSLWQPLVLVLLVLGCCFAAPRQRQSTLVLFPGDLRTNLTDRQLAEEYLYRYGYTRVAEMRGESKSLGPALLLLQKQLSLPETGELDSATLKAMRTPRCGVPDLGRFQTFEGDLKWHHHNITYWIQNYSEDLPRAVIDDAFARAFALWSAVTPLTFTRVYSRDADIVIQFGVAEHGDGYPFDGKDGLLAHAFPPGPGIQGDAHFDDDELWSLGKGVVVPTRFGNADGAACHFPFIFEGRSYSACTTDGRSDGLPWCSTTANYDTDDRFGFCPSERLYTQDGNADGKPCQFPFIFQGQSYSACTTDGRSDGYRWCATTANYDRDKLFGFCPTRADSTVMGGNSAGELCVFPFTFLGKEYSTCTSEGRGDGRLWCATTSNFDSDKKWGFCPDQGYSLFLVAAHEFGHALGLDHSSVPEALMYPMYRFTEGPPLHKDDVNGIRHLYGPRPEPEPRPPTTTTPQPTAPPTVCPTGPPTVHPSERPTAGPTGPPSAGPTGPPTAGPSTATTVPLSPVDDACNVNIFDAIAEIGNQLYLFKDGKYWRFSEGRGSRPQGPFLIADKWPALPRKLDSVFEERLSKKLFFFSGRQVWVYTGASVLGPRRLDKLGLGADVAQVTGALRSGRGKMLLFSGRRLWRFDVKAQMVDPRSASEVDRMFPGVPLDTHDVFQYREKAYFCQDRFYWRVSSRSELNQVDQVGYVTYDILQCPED

What is called IC50 is the concentration that gives 50% inhibition. On to `CNC(=O)[C@H](Cc1ccccc1)NC(=O)[C@H]1[C@@H](COCC(=O)NO)[C@@H]1CSc1ccccc1`, for which the values for the IC50 (in experiment [1]; in experiment [2]; in the experiment with L1210) were 32 µM, 36 µM and over 1000 µM, respectively.
